The values below come from publication PMC12748989 (Nature Communications, 2025).

For one test, the system named is PBMC. To be noted: 12.5 µM.

In the case of `CC[C@H](C)[C@H](N)C(=O)N[C@@H](CC(N)=O)C(=O)N[C@@H](CC(C)C)C(=O)N1CCC[C@H]1C(=O)N[C@@H](C)C(=O)N[C@@H](CC(C)C)C(=O)N[C@@H](C)C(=O)N[C@@H](C)C(=O)N[C@@H](CC(C)C)C(=O)N[C@@H](C)C(=O)N[C@@H](CCCCN)C(=O)N[C@@H](CCCCN)C(=O)N[C@H](C(=O)N[C@@H](CC(C)C)C(N)=O)[C@@H](C)CC` [P4], the “Average (percentage cell inhibition), Mastoparan PBMC” value in the test with PBMC was -6.014%. For the same molecule, in the test with MDA-MB-231 cells, the “Average (percentage cell inhibition), Dmastoparan MDA-MB231 12.5uM” value is on record as 10.9719%.

As to `CC[C@H](C)[C@H](N)C(=O)N[C@@H](CC(N)=O)C(=O)N[C@@H](CC(C)C)C(=O)N[C@@H](CCCCN)C(=O)N[C@@H](C)C(=O)N[C@@H](CC(C)C)C(=O)N[C@@H](C)C(=O)NCC(=O)N[C@@H](CC(C)C)C(=O)N[C@@H](C)C(=O)N[C@@H](CCCCN)C(=O)N[C@@H](CCCCN)C(=O)N[C@H](C(=O)N[C@@H](CC(C)C)C(N)=O)[C@@H](C)CC` [G8], the “Average (percentage cell inhibition), Mastoparan PBMC” value in the test with PBMC came to 1.421%. The “Average (percentage cell inhibition), Dmastoparan MDA-MB231 12.5uM” value with MDA-MB-231 cells came to 28.4057%.

Turning to `CC[C@H](C)[C@H](N)C(=O)N[C@@H](CC(N)=O)C(=O)N[C@@H](CC(C)C)C(=O)N[C@@H](CCCCN)C(=O)N[C@@H](C)C(=O)N[C@@H](C)C(=O)N[C@@H](C)C(=O)N[C@@H](C)C(=O)N[C@@H](CC(C)C)C(=O)N[C@@H](C)C(=O)N[C@@H](CCCCN)C(=O)N[C@@H](CCCCN)C(=O)N[C@H](C(=O)N[C@@H](CC(C)C)C(N)=O)[C@@H](C)CC` [A6], the “Average (percentage cell inhibition), Mastoparan PBMC” value in the test with PBMC is -1.6231%. Besides, the “Average (percentage cell inhibition), Dmastoparan MDA-MB231 12.5uM” value in the test on MDA-MB-231 cells is 16.1268%.

On to `CC[C@H](C)[C@H](N)C(=O)N[C@@H](CC(N)=O)C(=O)N[C@@H](CC(C)C)C(=O)N[C@@H](CCCCN)C(=O)N[C@@H](C)C(=O)N[C@@H](CC(C)C)C(=O)N[C@@H](C)C(=O)N[C@@H](CCCNC(=N)N)C(=O)N[C@@H](CC(C)C)C(=O)N[C@@H](C)C(=O)N[C@@H](CCCCN)C(=O)N[C@@H](CCCCN)C(=O)N[C@H](C(=O)N[C@@H](CC(C)C)C(N)=O)[C@@H](C)CC` [R8], for which the “Average (percentage cell inhibition), Mastoparan PBMC” value in the test on PBMC worked out at 4.899%. Moreover, the “Average (percentage cell inhibition), Dmastoparan MDA-MB231 12.5uM” value in the test on MDA-MB-231 cells is given as 42.355%.

With `CC[C@H](C)[C@H](N)C(=O)N[C@@H](CCC(N)=O)C(=O)N[C@@H](CC(C)C)C(=O)N[C@@H](CCCCN)C(=O)N[C@@H](C)C(=O)N[C@@H](CC(C)C)C(=O)N[C@@H](C)C(=O)N[C@@H](C)C(=O)N[C@@H](CC(C)C)C(=O)N[C@@H](C)C(=O)N[C@@H](CCCCN)C(=O)N[C@@H](CCCCN)C(=O)N[C@H](C(=O)N[C@@H](CC(C)C)C(N)=O)[C@@H](C)CC` [Q2], the “Average (percentage cell inhibition), Mastoparan PBMC” value in the test with PBMC is on record as 13.2802%. Also, the “Average (percentage cell inhibition), Dmastoparan MDA-MB231 12.5uM” value in the test on MDA-MB-231 cells is 33.3572%.

Take `CC[C@H](C)[C@H](N)C(=O)N[C@@H](CC(N)=O)C(=O)N[C@@H](CC(C)C)C(=O)N[C@@H](CCCCN)C(=O)N[C@@H](CCCNC(=N)N)C(=O)N[C@@H](CC(C)C)C(=O)N[C@@H](C)C(=O)N[C@@H](C)C(=O)N[C@@H](CC(C)C)C(=O)N[C@@H](C)C(=O)N[C@@H](CCCCN)C(=O)N[C@@H](CCCCN)C(=O)N[C@H](C(=O)N[C@@H](CC(C)C)C(N)=O)[C@@H](C)CC` [R5]: in the test on PBMC, the “Average (percentage cell inhibition), Mastoparan PBMC” value is -0.4192%. Moreover, the “Average (percentage cell inhibition), Dmastoparan MDA-MB231 12.5uM” value in the test on MDA-MB-231 cells is 27.1833%.

Take `CC[C@H](C)[C@H](N)C(=O)N[C@H](C(=O)N[C@@H](CC(C)C)C(=O)N[C@@H](CCCCN)C(=O)N[C@@H](C)C(=O)N[C@@H](CC(C)C)C(=O)N[C@@H](C)C(=O)N[C@@H](C)C(=O)N[C@@H](CC(C)C)C(=O)N[C@@H](C)C(=O)N[C@@H](CCCCN)C(=O)N[C@@H](CCCCN)C(=O)N[C@H](C(=O)N[C@@H](CC(C)C)C(N)=O)[C@@H](C)CC)[C@@H](C)O` [T2]: in the test on PBMC, the “Average (percentage cell inhibition), Mastoparan PBMC” value came to 20.7916%. For the same molecule, the “Average (percentage cell inhibition), Dmastoparan MDA-MB231 12.5uM” value in the test with MDA-MB-231 cells came to 59.8803%.

As to `CC[C@H](C)[C@H](N)C(=O)N[C@@H](CC(N)=O)C(=O)N[C@@H](CC(C)C)C(=O)N[C@@H](CCCCN)C(=O)N[C@@H](C)C(=O)N[C@@H](CC(C)C)C(=O)N[C@@H](C)C(=O)N[C@@H](C)C(=O)N[C@@H](CC(C)C)C(=O)N[C@@H](C)C(=O)N[C@@H](CCCCN)C(=O)N[C@@H](CCC(N)=O)C(=O)N[C@H](C(=O)N[C@@H](CC(C)C)C(N)=O)[C@@H](C)CC` [Q12], the “Average (percentage cell inhibition), Mastoparan PBMC” value in the test on PBMC is given as -3.934%. Also, the “Average (percentage cell inhibition), Dmastoparan MDA-MB231 12.5uM” value in the test with MDA-MB-231 cells came to 35.4495%.

For the molecule `CC[C@H](C)[C@H](N)C(=O)N[C@@H](CC(N)=O)C(=O)N[C@@H](CC(C)C)C(=O)N[C@@H](CCCCN)C(=O)N[C@@H](C)C(=O)N[C@@H](CC(C)C)C(=O)N[C@@H](C)C(=O)N[C@@H](C)C(=O)N[C@@H](CC(C)C)C(=O)N[C@@H](C)C(=O)N[C@@H](CCCCN)C(=O)N[C@@H](Cc1c[nH]c2ccccc12)C(=O)N[C@H](C(=O)N[C@@H](CC(C)C)C(N)=O)[C@@H](C)CC` [W12], the “Average (percentage cell inhibition), Mastoparan PBMC” value in the test with PBMC is recorded as 73.0011%. The “Average (percentage cell inhibition), Dmastoparan MDA-MB231 12.5uM” value with MDA-MB-231 cells came out at 64.637%.

Take `CC[C@H](C)[C@H](N)C(=O)N[C@@H](CCCCN)C(=O)N[C@@H](CC(C)C)C(=O)N[C@@H](CCCCN)C(=O)N[C@@H](C)C(=O)N[C@@H](CC(C)C)C(=O)N[C@@H](C)C(=O)N[C@@H](C)C(=O)N[C@@H](CC(C)C)C(=O)N[C@@H](C)C(=O)N[C@@H](CCCCN)C(=O)N[C@@H](CCCCN)C(=O)N[C@H](C(=O)N[C@@H](CC(C)C)C(N)=O)[C@@H](C)CC` [K2]: the “Average (percentage cell inhibition), Mastoparan PBMC” value with PBMC was determined as 14.3506%. In addition, the “Average (percentage cell inhibition), Dmastoparan MDA-MB231 12.5uM” value in the test on MDA-MB-231 cells is listed as 44.3131%.

On to `CC[C@H](C)[C@H](N)C(=O)N[C@@H](CC(N)=O)C(=O)N[C@@H](CC(C)C)C(=O)N[C@@H](CCCCN)C(=O)N[C@@H](C)C(=O)N[C@@H](CO)C(=O)N[C@@H](C)C(=O)N[C@@H](C)C(=O)N[C@@H](CC(C)C)C(=O)N[C@@H](C)C(=O)N[C@@H](CCCCN)C(=O)N[C@@H](CCCCN)C(=O)N[C@H](C(=O)N[C@@H](CC(C)C)C(N)=O)[C@@H](C)CC` [S6], for which the “Average (percentage cell inhibition), Mastoparan PBMC” value in the test on PBMC is -17.608%. Moreover, the “Average (percentage cell inhibition), Dmastoparan MDA-MB231 12.5uM” value with MDA-MB-231 cells was 29.7699%.

`CC[C@H](C)[C@H](N)C(=O)N[C@@H](CC(N)=O)C(=O)N[C@@H](CC(C)C)C(=O)N[C@@H](CCCCN)C(=O)N[C@@H](C)C(=O)NCC(=O)N[C@@H](C)C(=O)N[C@@H](C)C(=O)N[C@@H](CC(C)C)C(=O)N[C@@H](C)C(=O)N[C@@H](CCCCN)C(=O)N[C@@H](CCCCN)C(=O)N[C@H](C(=O)N[C@@H](CC(C)C)C(N)=O)[C@@H](C)CC` [G6]: in the test with PBMC, the “Average (percentage cell inhibition), Mastoparan PBMC” value is listed as 3.256%. The “Average (percentage cell inhibition), Dmastoparan MDA-MB231 12.5uM” value in the test on MDA-MB-231 cells stood at 27.1038%.

Turning to `CC[C@H](C)[C@H](N)C(=O)N[C@@H](Cc1ccc(O)cc1)C(=O)N[C@@H](CC(C)C)C(=O)N[C@@H](CCCCN)C(=O)N[C@@H](C)C(=O)N[C@@H](CC(C)C)C(=O)N[C@@H](C)C(=O)N[C@@H](C)C(=O)N[C@@H](CC(C)C)C(=O)N[C@@H](C)C(=O)N[C@@H](CCCCN)C(=O)N[C@@H](CCCCN)C(=O)N[C@H](C(=O)N[C@@H](CC(C)C)C(N)=O)[C@@H](C)CC` [Y2], the “Average (percentage cell inhibition), Mastoparan PBMC” value in the test on PBMC is 57.84%. Further, the “Average (percentage cell inhibition), Dmastoparan MDA-MB231 12.5uM” value in the test with MDA-MB-231 cells is on record as 75.0702%.

Regarding `CC[C@H](C)[C@H](N)C(=O)N[C@@H](CC(N)=O)C(=O)N[C@@H](CC(C)C)C(=O)N[C@@H](CCCCN)C(=O)N[C@@H](C)C(=O)N[C@@H](CC(C)C)C(=O)N[C@@H](C)C(=O)N[C@@H](C)C(=O)N[C@@H](CC(C)C)C(=O)N[C@@H](C)C(=O)N[C@@H](CCCCN)C(=O)N[C@@H](CCCCN)C(=O)N[C@H](C(=O)N[C@@H](Cc1c[nH]c2ccccc12)C(N)=O)[C@@H](C)CC` [W14], in the test on PBMC, the “Average (percentage cell inhibition), Mastoparan PBMC” value stood at 13.9862%. Besides, the “Average (percentage cell inhibition), Dmastoparan MDA-MB231 12.5uM” value with MDA-MB-231 cells stood at 56.1495%.

Take `CC[C@H](C)[C@H](N)C(=O)N[C@@H](CC(N)=O)C(=O)N[C@@H](CC(C)C)C(=O)N[C@@H](CCCCN)C(=O)N[C@@H](C)C(=O)N[C@@H](CC(C)C)C(=O)N[C@@H](C)C(=O)N[C@@H](C)C(=O)N[C@@H](CC(C)C)C(=O)N[C@@H](C)C(=O)N[C@@H](CCCCN)C(=O)N[C@@H](CCCCN)C(=O)N[C@H](C(=O)N[C@@H](CCCNC(=N)N)C(N)=O)[C@@H](C)CC` [R14]: the “Average (percentage cell inhibition), Mastoparan PBMC” value in the test with PBMC was -1.726%. In the test on MDA-MB-231 cells, the “Average (percentage cell inhibition), Dmastoparan MDA-MB231 12.5uM” value turned out to be 9.085%.

With `CC[C@H](C)[C@H](N)C(=O)N[C@@H](CC(N)=O)C(=O)N[C@@H](CC(C)C)C(=O)N[C@@H](CCCCN)C(=O)N[C@@H](C)C(=O)N[C@@H](CC(C)C)C(=O)N[C@@H](CCC(=O)O)C(=O)N[C@@H](C)C(=O)N[C@@H](CC(C)C)C(=O)N[C@@H](C)C(=O)N[C@@H](CCCCN)C(=O)N[C@@H](CCCCN)C(=O)N[C@H](C(=O)N[C@@H](CC(C)C)C(N)=O)[C@@H](C)CC` [E7], the “Average (percentage cell inhibition), Mastoparan PBMC” value in the test on PBMC was 6.221%. The “Average (percentage cell inhibition), Dmastoparan MDA-MB231 12.5uM” value with MDA-MB-231 cells stood at 27.5958%.

With `CC[C@H](C)[C@H](N)C(=O)N[C@@H](CC(N)=O)C(=O)N[C@@H](CC(C)C)C(=O)N[C@@H](CCCCN)C(=O)N[C@@H](C)C(=O)N[C@@H](CC(C)C)C(=O)N[C@@H](C)C(=O)N[C@@H](C)C(=O)N[C@@H](CC(C)C)C(=O)NCC(=O)N[C@@H](CCCCN)C(=O)N[C@@H](CCCCN)C(=O)N[C@H](C(=O)N[C@@H](CC(C)C)C(N)=O)[C@@H](C)CC` [G10], the “Average (percentage cell inhibition), Mastoparan PBMC” value in the test with PBMC came to 11.4267%. In addition, in the test with MDA-MB-231 cells, the “Average (percentage cell inhibition), Dmastoparan MDA-MB231 12.5uM” value came to 20.1107%.

Turning to `CC[C@H](C)[C@H](N)C(=O)N[C@@H](CC(N)=O)C(=O)N[C@@H](CC(C)C)C(=O)N[C@@H](Cc1ccc(O)cc1)C(=O)N[C@@H](C)C(=O)N[C@@H](CC(C)C)C(=O)N[C@@H](C)C(=O)N[C@@H](C)C(=O)N[C@@H](CC(C)C)C(=O)N[C@@H](C)C(=O)N[C@@H](CCCCN)C(=O)N[C@@H](CCCCN)C(=O)N[C@H](C(=O)N[C@@H](CC(C)C)C(N)=O)[C@@H](C)CC` [Y4], the “Average (percentage cell inhibition), Mastoparan PBMC” value with PBMC is on record as 3.789%. For the same molecule, the “Average (percentage cell inhibition), Dmastoparan MDA-MB231 12.5uM” value in the test on MDA-MB-231 cells worked out at 34.4143%.
